Here are results for three compounds from patent publication US5763433A, “Pharmaceutical compositions containing 3-beta-hydroxylated 6,7-substituted steroid derivatives, and use thereof” (Conservatoire National des Arts et Metiers, priority 1992, dated 1998).

The subject of one data set is anti-lysozyme IgG. The experiment in a line: Immunoenzymatic measurement of anti-lysozyme IgG in serum of mice immunized against lysozyme. It counts as in vivo, C57BL/6 mice. To be noted: for Optical densities +/- SD, anti-lysozyme IgG, 1/180 serial dilution: serum 1/180; for Optical densities +/- SD, anti-lysozyme IgG, 1/180 serial dilution / Optical densities +/- SD, anti-lysozyme IgG, 1/540 serial dilution / Optical densities +/- SD, anti-lysozyme IgG, first serial dilution: s.c., mean of 5 mice; for Optical densities +/- SD, anti-lysozyme IgG, 1/180 serial dilution / Optical densities +/- SD, anti-lysozyme IgG, 1/540 serial dilution: doses and timing as E1; for Optical densities +/- SD, anti-lysozyme IgG, 1/540 serial dilution: serum 1/540; for Optical densities +/- SD, anti-lysozyme IgG, first serial dilution: serum dilution not given, PREG 0,5 g/kg, DHEA 1,0 g/kg, ADIOL 125 mg/kg 1 hour before lysozyme, 7-hydroxy-PREG and 7-hydroxy-DHEA 6,25 mg/kg, 7β-hydroxy-DHEA 50,0 mg/kg, 7- and 7β-hydroxy-ADIOL 25,0 mg/kg with lysozyme; for Effect on serum concentrations of anti-lysozyme IgG (in words): steroid administered s.c. at least one hour prior to the injection of lysozyme; for Effect on serum anti-lysozyme IgG (in words): steroid administered s.c. simultaneously with lysozyme. As to the method:
The immunity effector effect was tested by subcutaneous injection concomitantly with that of an antigen and the 7-alpha- or 7-beta-hydroxylated derivative into C57BL/6 mice according to a standard immunization protocol (Methods in Enzymology (1980), vol. 70).
The effect of the compound as cellular immunity effector is measured by the quantity of circulating IgG directed against the antigen 21 days after the injection and after a booster injection 14 days layer.
Thirty five groups of five 6-weeks old C57BL/6 mice are given a subcutaneous injection of 200 ug of hen egg white lysozyme on days one and fourteen of the immunization protocol. Solutions of DHEA (Sigma D-4500) in dimethyl sulfoxide (DMSO) are injected in the same manner at variable times before the first injection of lysozyme. Amounts ranging from 0.25 and 2 g/kg are used. Ten other groups of 5 mice are given a subcutaneous injection of 6.25 to 50 mg/kg of 7-alpha-hydroxy-DHEA or 7-beta-hydroxy-DHEA dissolved in DMSO at the same time as the first lysozyme injection. Two groups receive only DMSO with lysozyme (controls). The blanks correspond to one group of 5 mice and are not given an injection.
Three weeks after the first injections the animals, then aged 9 weeks, are decapitated. The blood of each animal is collected and the presence of anti-lysozyme G immunoglobulins (IgG) is measured in serial dilutions of the sera by an immunoenzymatic titration using goat anti-mouse (Fc) IgG immunoglobulin labelled with peroxidase.
A group of 5 mice is given the subcutaneous injection of 125 mg/kg of 5-androstene-3-beta, 17-beta-diol (ADIOL) one hour prior to the first injection of lysozyme, and two groups of 5 mice are treated with 25 mg/kg of 7-alpha-hydroxy-ADIOL or 7-beta-hydroxy-ADIOL at the time of the first lysozyme injection.
DHEA or PREG or ADIOL is injected subcutaneously 1 hour before the first lysozyme injection. The 7-hydroxylated derivatives are administered simultaneously with the lysozyme injection. The immunoenzymatic measurement of the anti-lysozyme IgGs in the serial dilutions of the sera of each animal makes use of goat anti-mouse (Fc) IgG immunoglobulin, labelled with peroxidase in 96-well plates treated with lysozyme. The mean value of the optical densities measured in each group of 5 mice is calculated as well as the standard deviation (SD).

The next data set relates to antiviral response. As to conditions: 20 mg/kg to 320 mg/kg s.c. or 0.4% by weight of the diet; cited from earlier work.
Data set [1] addresses T1, nuclear binding of tritiated dexamethazone (glucocorticoid receptors) (Mus musculus, UniProt P06537).
T1 construct: The liver, brain, spleen and thymus are excised and the cells of each organ are recovered; from tissue; host or cells: isolated cells of liver, brain, spleen and thymus of metyrapone-treated C57BL/6 mice
T1 sequence (P06537 1-792): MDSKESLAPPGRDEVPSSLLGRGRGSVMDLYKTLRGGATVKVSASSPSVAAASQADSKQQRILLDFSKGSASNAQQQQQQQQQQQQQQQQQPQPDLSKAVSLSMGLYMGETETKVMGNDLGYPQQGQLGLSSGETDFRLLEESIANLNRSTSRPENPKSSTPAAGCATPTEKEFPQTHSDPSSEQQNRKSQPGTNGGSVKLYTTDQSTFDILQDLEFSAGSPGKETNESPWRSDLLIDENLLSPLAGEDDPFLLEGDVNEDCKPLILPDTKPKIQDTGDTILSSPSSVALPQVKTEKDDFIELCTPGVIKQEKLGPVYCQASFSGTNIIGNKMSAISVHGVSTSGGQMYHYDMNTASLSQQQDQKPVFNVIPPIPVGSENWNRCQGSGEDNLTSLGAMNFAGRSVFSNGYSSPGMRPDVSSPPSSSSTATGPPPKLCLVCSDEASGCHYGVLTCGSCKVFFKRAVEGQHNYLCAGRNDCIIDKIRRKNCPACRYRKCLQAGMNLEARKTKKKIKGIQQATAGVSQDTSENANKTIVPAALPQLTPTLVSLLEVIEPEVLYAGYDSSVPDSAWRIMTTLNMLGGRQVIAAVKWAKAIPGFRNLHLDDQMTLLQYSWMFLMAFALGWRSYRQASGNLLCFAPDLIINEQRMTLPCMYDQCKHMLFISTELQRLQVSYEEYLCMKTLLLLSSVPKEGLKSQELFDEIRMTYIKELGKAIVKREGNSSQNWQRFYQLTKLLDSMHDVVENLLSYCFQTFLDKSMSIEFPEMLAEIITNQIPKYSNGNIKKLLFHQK
Description: Displacement of the nuclear binding of tritiated dexamethazone in isolated liver, brain, thymus and spleen cells. On the set-up: species or system C57BL/6 mouse. As to the method:
The isolated hepatocytes are incubated for 1 hour at room temperature with increasing concentrations (2-80 nM) of ^3 H-dexamethazone (DEX*). […] The hepatocyte nuclei are then isolated and purified and the radioactivity corresponding to the DEX* still bound is measured and expressed in cpm/10 ug of DNA. The area under the curve DEX* corresponds to zero displacement of the radioactivity. The area under the curve DEX*/DEX which corresponds to the displacement of radioactivity by the same molecule is taken arbitrarily as 100. The areas under the curve obtained with the other steroids makes it possible to calculate by interpolation between the areas zero and 100 their displacement coefficients for the nuclear binding of DEX*.
The mice are anesthetized with ether and bled, then perfused intracardially with physiological serum containing collagenase B (0.03 g/100 ml) for 10 minutes. […] The quantities of cells obtained are estimated on the base of the measurement of the DNA contained in the preparations.
The nuclei are recovered and their radioactive content measured as described by the authors cited above.
The area under the curve of tritiated dexamethazone alone is measured and taken as zero. […] The displacement coefficients found for each of the other steroids are calculated by interpolation on this scale, each result being the mean of a triplicate determination.

Data set [2] deals with cytosolic or nuclear receptors specific for 7-alpha-hydroxy-DHEA. The experiment in a line: Search for cytosolic or nuclear receptors specific for 7-alpha-hydroxy-DHEA (studies not reported). To be noted: studies not reported here. It counts as binding.
Data set [3] relates to human viruses Edwards CVB4 or HSV2. As to conditions: s.c., of the order of 1 g/kg 4 hours prior to viral infection; also oral 0.4% in the diet for 16 weeks; cited from earlier work.
A further data set concerns AIDS. To be noted: 400 to 2500 mg/day; cited from earlier work.
The conditions of data set [4]: cited from earlier work.

Molecules are shown by their SMILES.

In the case of `C[C@]12CC[C@H]3[C@@H](CC=C4C[C@@H](O)CC[C@@]43C)[C@@H]1CC[C@@H]2O` [ADIOL, 5-androstene-3-beta, 17-beta-diol, reference compound], in the data set on anti-lysozyme IgG, the “Optical densities +/- SD, anti-lysozyme IgG, 1/180 serial dilution” value was 0,37 ± 0,06; the “Optical densities +/- SD, anti-lysozyme IgG, 1/540 serial dilution” value is 0,22 ± 0,03; the “Optical densities +/- SD, anti-lysozyme IgG, first serial dilution” value is given as 0,26 ± 0,09; the “Effect on serum concentrations of anti-lysozyme IgG (in words)” value is given as “increase the serum concentrations of anti-lysozyme IgG”. The Antiviral response result in the data set with antiviral response was “enhanced antiviral response”.

Take `C[C@]12CC[C@H](O)CC1=C[C@@H](O)[C@@H]1[C@@H]2CC[C@]2(C)C(=O)CC[C@@H]12` [7-hydroxy-DHEA, 3-beta, 7-alpha-dihydroxy-androst-5-en-17-one]: in the data set on anti-lysozyme IgG, the “Optical densities +/- SD, anti-lysozyme IgG, 1/180 serial dilution” value was 0,74 ± 0,21; the “Optical densities +/- SD, anti-lysozyme IgG, 1/540 serial dilution” value is recorded as 0,43 ± 0,12; the “Optical densities +/- SD, anti-lysozyme IgG, first serial dilution” value is listed as 1,21 ± 0,37. The “Effect on serum anti-lysozyme IgG (in words)” value in the data set with anti-lysozyme IgG (listed as 7-alpha-OH-DHEA) was “particularly marked effect of the low doses”. Also, the “Effect on serum anti-lysozyme IgG (in words)” value with anti-lysozyme IgG (listed as 7-alpha-hydroxy-DHEA) is listed as “much more active than its 7-beta epimer”. The “Displacement of tritiated dexamethazone from nuclear binding / anti-glucocorticoid action (in words)” value in data set [1] (100-fold excess of steroid) is on record as “more effective that the 7-beta epimer”. The “Displacement coefficient for nuclear binding of tritiated dexamethazone, Brain” value in data set [1] (brain cells, 100-fold excess of steroid, no competitor = zero, unlabelled dexamethazone = 100, mean of triplicate) came to 49. Further, the “Displacement coefficient for nuclear binding of tritiated dexamethazone, Liver” value in data set [1] (liver cells, 100-fold excess of steroid over 2-80 nM 3H-dexamethazone, no competitor = zero, unlabelled dexamethazone = 100, mean of triplicate, 60 min) amounted to 95. Besides, in data set [1] (spleen cells, 100-fold excess of steroid, no competitor = zero, unlabelled dexamethazone = 100, mean of triplicate), the “Displacement coefficient for nuclear binding of tritiated dexamethazone, Spleen” value was 91. The “Displacement coefficient for nuclear binding of tritiated dexamethazone, Thymus” value in data set [1] (thymus cells, 100-fold excess of steroid, no competitor = zero, unlabelled dexamethazone = 100, mean of triplicate) was determined as 85. Further, the “Existence of specific cytosolic or nuclear receptors” value in data set [2] is on record as “do not exist”.

Consider `C[C@]12CC[C@H](O)CC1=CC[C@@H]1[C@@H]2CC[C@]2(C)C(=O)CC[C@@H]12` [DHEA, 3-beta-hydroxy-5-androsten-17-one, reference compound], for which, in the data set with anti-lysozyme IgG, the “Optical densities +/- SD, anti-lysozyme IgG, 1/180 serial dilution” value is 0,26 ± 0,04; the “Optical densities +/- SD, anti-lysozyme IgG, 1/540 serial dilution” value is reported as 0,14 ± 0,02; the “Optical densities +/- SD, anti-lysozyme IgG, first serial dilution” value is reported as 0,40 ± 0,06; the “Effect on serum concentrations of anti-lysozyme IgG (in words)” value is reported as “increase the serum concentrations of anti-lysozyme IgG”. For the same compound, the “Survival of infected mice” value in data set [3] is on record as “enables the survival of mice infected by the human viruses Edwards CVB4 or HSV2 to be increased”. Further, the “Effect on patients suffering from AIDS” value in the data set with AIDS was “positive effect”. Further, the “Solubility in aqueous solutions” value in data set [4] is reported as “low solubility”.
